In PMC12064818, “A general assay platform to study protein pharmacology using ligand-dependent structural dynamics” (Nature Communications, 2025):

Biological target: firefly luciferase (FLuc) (Photinus pyralis, UniProt P08659)
Experiment: Thermal shift profiles (Thermofluor assay), FLuc;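 for Thermofluor FLuc, No ATP: normalized first derivative of fluorescence (dF/dT) at the stated temperature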
Format: binding
Set-up: unit of the concentration uncertain
Conditions: compound 100 (unit uncertain); for Thermofluor FLuc, ATP: ATP (2 (unit uncertain))

firefly luciferase (FLuc), sequence (P08659 whole entry): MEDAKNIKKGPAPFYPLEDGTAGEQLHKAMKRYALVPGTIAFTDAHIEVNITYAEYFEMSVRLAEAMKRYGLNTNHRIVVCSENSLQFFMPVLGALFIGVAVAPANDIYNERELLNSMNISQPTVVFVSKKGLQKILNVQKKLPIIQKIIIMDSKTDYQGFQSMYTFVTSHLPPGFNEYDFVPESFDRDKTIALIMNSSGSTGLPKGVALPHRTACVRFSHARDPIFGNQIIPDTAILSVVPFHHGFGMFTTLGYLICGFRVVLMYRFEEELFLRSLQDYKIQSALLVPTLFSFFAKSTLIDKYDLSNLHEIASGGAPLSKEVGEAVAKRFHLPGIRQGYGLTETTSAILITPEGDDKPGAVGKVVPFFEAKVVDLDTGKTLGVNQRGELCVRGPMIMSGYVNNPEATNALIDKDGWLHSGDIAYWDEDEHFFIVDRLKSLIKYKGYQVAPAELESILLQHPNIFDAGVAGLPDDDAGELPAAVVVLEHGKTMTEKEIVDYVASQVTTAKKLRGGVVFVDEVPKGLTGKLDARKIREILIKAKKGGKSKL

COc1ccc(NC(=O)C2CCN(C(=O)c3ncn4c3COC(c3ccccc3)C4)CC2)cc1Cl (centres unmarked) [NCGC 00449919]
Thermofluor FLuc, No ATP (20.000 °C): 0.250 | Thermofluor FLuc, ATP (20.000 °C): 0.934 | Thermofluor FLuc, No ATP (20.993 °C): 0.185 | Thermofluor FLuc, ATP (20.993 °C): 0.955 | Thermofluor FLuc, No ATP (21.987 °C): 0.201 | Thermofluor FLuc, ATP (21.987 °C): 0.975 | Thermofluor FLuc, No ATP (22.980 °C): 0.152 | Thermofluor FLuc, ATP (22.980 °C): 0.992 | Thermofluor FLuc, No ATP (23.974 °C): 0.098 | Thermofluor FLuc, ATP (23.974 °C): 1 | Thermofluor FLuc, No ATP (24.967 °C): 0.101 | Thermofluor FLuc, ATP (24.967 °C): 0.999 | Thermofluor FLuc, No ATP (25.960 °C): 0.104 | Thermofluor FLuc, ATP (25.960 °C): 0.991 | Thermofluor FLuc, No ATP (26.954 °C): 0.059 | Thermofluor FLuc, ATP (26.954 °C): 0.977 | Thermofluor FLuc, No ATP (27.947 °C): 0.054 | Thermofluor FLuc, ATP (27.947 °C): 0.961 | Thermofluor FLuc, No ATP (28.940 °C): 0.030 | Thermofluor FLuc, ATP (28.940 °C): 0.943 | Thermofluor FLuc, No ATP (29.934 °C): 0.043 | Thermofluor FLuc, ATP (29.934 °C): 0.925 | Thermofluor FLuc, No ATP (30.927 °C): 0.015 | Thermofluor FLuc, ATP (30.927 °C): 0.906 | Thermofluor FLuc, No ATP (31.921 °C): 0.031 | Thermofluor FLuc, ATP (31.921 °C): 0.886 | Thermofluor FLuc, No ATP (32.914 °C): 0.002 | Thermofluor FLuc, ATP (32.914 °C): 0.862 | Thermofluor FLuc, No ATP (33.907 °C): 0.008 | Thermofluor FLuc, ATP (33.907 °C): 0.832 | Thermofluor FLuc, No ATP (34.901 °C): 0.005 | Thermofluor FLuc, ATP (34.901 °C): 0.793 | Thermofluor FLuc, No ATP (35.894 °C): 0.014 | Thermofluor FLuc, ATP (35.894 °C): 0.741 | Thermofluor FLuc, No ATP (36.887 °C): 0.000 | Thermofluor FLuc, ATP (36.887 °C): 0.675 | Thermofluor FLuc, No ATP (37.881 °C): 0.036 | Thermofluor FLuc, ATP (37.881 °C): 0.591 | Thermofluor FLuc, No ATP (38.874 °C): 0.034 | Thermofluor FLuc, ATP (38.874 °C): 0.492 | Thermofluor FLuc, No ATP (39.868 °C): 0.075 | Thermofluor FLuc, ATP (39.868 °C): 0.38 | Thermofluor FLuc, No ATP (40.861 °C): 0.126 | Thermofluor FLuc, ATP (40.861 °C): 0.264 | Thermofluor FLuc, No ATP (41.854 °C): 0.197 | Thermofluor FLuc, ATP (41.854 °C): 0.155 | Thermofluor FLuc, No ATP (42.848 °C): 0.295 | Thermofluor FLuc, ATP (42.848 °C): 0.067 | Thermofluor FLuc, No ATP (43.841 °C): 0.412 | Thermofluor FLuc, ATP (43.841 °C): 0.013 | Thermofluor FLuc, No ATP (44.835 °C): 0.542 | Thermofluor FLuc, ATP (44.835 °C): 0 | Thermofluor FLuc, No ATP (45.828 °C): 0.677 | Thermofluor FLuc, ATP (45.828 °C): 0.03 | Thermofluor FLuc, No ATP (46.821 °C): 0.764 | Thermofluor FLuc, ATP (46.821 °C): 0.099 | Thermofluor FLuc, No ATP (47.815 °C): 0.849 | Thermofluor FLuc, ATP (47.815 °C): 0.195 | Thermofluor FLuc, No ATP (48.808 °C): 0.904 | Thermofluor FLuc, ATP (48.808 °C): 0.306 | Thermofluor FLuc, No ATP (50.795 °C): 0.949 | Thermofluor FLuc, ATP (50.795 °C): 0.532 | Thermofluor FLuc, No ATP (51.788 °C): 1.000 | Thermofluor FLuc, ATP (51.788 °C): 0.632 | Thermofluor FLuc, ATP (52.782 °C): 0.721 | Thermofluor FLuc, No ATP (53.775 °C): 1.000 | Thermofluor FLuc, ATP (53.775 °C): 0.796 | Thermofluor FLuc, No ATP (54.768 °C): 0.991 | Thermofluor FLuc, ATP (54.768 °C): 0.857 | Thermofluor FLuc, No ATP (55.762 °C): 0.972 | Thermofluor FLuc, ATP (55.762 °C): 0.903 | Thermofluor FLuc, No ATP (56.755 °C): 0.954 | Thermofluor FLuc, ATP (56.755 °C): 0.933 | Thermofluor FLuc, No ATP (57.748 °C): 0.930 | Thermofluor FLuc, ATP (57.748 °C): 0.95 | Thermofluor FLuc, No ATP (58.742 °C): 0.908 | Thermofluor FLuc, ATP (58.742 °C): 0.958 | Thermofluor FLuc, No ATP (59.735 °C): 0.892 | Thermofluor FLuc, ATP (59.735 °C): 0.959 | Thermofluor FLuc, No ATP (60.729 °C): 0.925 | Thermofluor FLuc, ATP (60.729 °C): 0.959 | Thermofluor FLuc, No ATP (61.722 °C): 0.872 | Thermofluor FLuc, ATP (61.722 °C): 0.958 | Thermofluor FLuc, No ATP (62.715 °C): 0.877 | Thermofluor FLuc, ATP (62.715 °C): 0.96 | Thermofluor FLuc, No ATP (63.709 °C): 0.837 | Thermofluor FLuc, ATP (63.709 °C): 0.963 | Thermofluor FLuc, No ATP (65.695 °C): 0.837 | Thermofluor FLuc, ATP (65.695 °C): 0.975 | Thermofluor FLuc, No ATP (66.689 °C): 0.789 | Thermofluor FLuc, ATP (66.689 °C): 0.981 | Thermofluor FLuc, No ATP (68.676 °C): 0.772 | Thermofluor FLuc, ATP (68.676 °C): 0.992 | Thermofluor FLuc, No ATP (69.669 °C): 0.774 | Thermofluor FLuc, ATP (69.669 °C): 0.996 | Thermofluor FLuc, No ATP (70.662 °C): 0.720 | Thermofluor FLuc, ATP (70.662 °C): 0.998 | Thermofluor FLuc, No ATP (71.656 °C): 0.708 | Thermofluor FLuc, ATP (71.656 °C): 0.999 | Thermofluor FLuc, No ATP (72.649 °C): 0.718 | Thermofluor FLuc, ATP (72.649 °C): 0.999 | Thermofluor FLuc, No ATP (73.643 °C): 0.669 | Thermofluor FLuc, ATP (73.643 °C): 0.998 | Thermofluor FLuc, No ATP (74.636 °C): 0.675 | Thermofluor FLuc, ATP (74.636 °C): 0.997 | Thermofluor FLuc, No ATP (75.629 °C): 0.640 | Thermofluor FLuc, ATP (75.629 °C): 0.995
